Data: patent US7407775B2, “Method for identifying Listeria monocytogenes and culture medium” (Biomerieux S.A., priority 2000, dated 2008)

How the values were obtained:
Format in all cases: cell-based
[1] = system: Listeria monocytogenes, Listeria innocua and Listeria ivanovii; test: Experiment 4: comparison of Listeria strains with pairs of substrates; settings: for results as saccharidase substrate paired with an esterase substrate: Experiment 4, semi-solid medium
Description: (§1) In Table 1 above, as in the following Tables, C represents the color of the colonies after incubation, I represents the intensity of the color, and the symbol “-” corresponds to the absence of color or intensity; finally, IT defines the incubation time. It should be noted that the intensity of the color is scored on an arbitrary scale but one which is consistent for all the biological specimens and media tested. This scale is valid for this experiment as well as all those that follow. It can be defined in the following way: • 0 corresponds to no activity, • 0.1 corresponds to a trace of color, • 0.5 corresponds to very pale coloration, • 1 corresponds to clear but low-intensity coloration, • 1.5 corresponds to a degree of coloration intermediate between scores 1 and 2, • 2 corresponds to clear coloration of moderate intensity, • 2.5 corresponds to a degree of coloration intermediate between scores 2 and 3, • 3 corresponds to intense coloration, • 3.5 corresponds to a degree of coloration intermediate between scores 3 and 4, • 4 corresponds to very intense coloration.
A stock solution of each esterase substrate at a concentration of 40 g/l was made up in a mixture of 40% Dimethylsulfoxide and 60% Tween 20. And a stock solution of each saccharidase substrate was made up in Dimethylsulfoxide. An appropriate volume of the stock solution of the esterase substrate corresponding to each of the pairs described above was added to one of eight Columbia-type media while cooling to obtain a final substrate concentration of 250 mg/l. In parallel, an appropriate volume of the stock solution of the saccharidase substrate corresponding to each of the pairs described above was added to each of the eight media in order to obtain a final concentration of between 100 and 200 mg/l (depending on the substrate). These dishes were divided into three areas and then each area was inoculated with a suspension (density=0.5 McFarland) of microorganisms taken from either the Applicant's own collection or the ATCC. The dishes were incubated for 48 hours at 37° C. The colonies which grew were examined by eye after 24 and 48 hours of incubation.
Both the color and the intensity of the color of the colonies were recorded.

Listeria seeligeri 011 = test: Experiment 3: detecting an esterase activity in liquid medium (API-type strips); parameters: key: —: the symbol “-” corresponds to the absence of color or intensity; 0 corresponds to no activity; 0.1 corresponds to a trace of color; 0.5 corresponds to very pale coloration; 1 corresponds to clear but low-intensity coloration; 1.5 corresponds to a degree of coloration intermediate between scores 1 and 2; 2 corresponds to clear coloration of moderate intensity; 2.5 corresponds to a degree of coloration intermediate between scores 2 and 3; 3 corresponds to intense coloration; 3.5 corresponds to a degree of coloration intermediate between scores 3 and 4; 4 corresponds to very intense coloration; settings: 37° C.
Description: as §1
(§2) These substrates were lyophilized in the wells of API-type strips (Registered Trademark). Before use, the substrates contained in the wells were resuspended in an agar-free Columbia-type inoculation medium. These wells were then inoculated with a suspension (density=2 McFarland) of microorganisms taken from either the Applicant's own collection or the ATCC. The strips were incubated for 8 hours at 37° C. The colonies which grew were examined by eye after 4, 6 and 8 hours of incubation.
(§3) The intensity of the color of the colonies was recorded.

[2] = system: Listeria grayi ATCC 19120; test: as above; parameters: key: —: the symbol “-” corresponds to the absence of color or intensity; 0 corresponds to no activity; 0.1 corresponds to a trace of color; 0.5 corresponds to very pale coloration; 1 corresponds to clear but low-intensity coloration; 1.5 corresponds to a degree of coloration intermediate between scores 1 and 2; 2 corresponds to clear coloration of moderate intensity; 2.5 corresponds to a degree of coloration intermediate between scores 2 and 3; 3 corresponds to intense coloration; 3.5 corresponds to a degree of coloration intermediate between scores 3 and 4; 4 corresponds to very intense coloration; settings: 37° C.
Description: as §1, §2, §3

Listeria welshimeri 023 = test: as above; parameters: key: —: the symbol “-” corresponds to the absence of color or intensity; 0 corresponds to no activity; 0.1 corresponds to a trace of color; 0.5 corresponds to very pale coloration; 1 corresponds to clear but low-intensity coloration; 1.5 corresponds to a degree of coloration intermediate between scores 1 and 2; 2 corresponds to clear coloration of moderate intensity; 2.5 corresponds to a degree of coloration intermediate between scores 2 and 3; 3 corresponds to intense coloration; 3.5 corresponds to a degree of coloration intermediate between scores 3 and 4; 4 corresponds to very intense coloration; settings: 37° C.
Description: as §1, §2, §3

[3] = system: Listeria monocytogenes ATCC 19115; test: as above; parameters: key: —: the symbol “-” corresponds to the absence of color or intensity; 0 corresponds to no activity; 0.1 corresponds to a trace of color; 0.5 corresponds to very pale coloration; 1 corresponds to clear but low-intensity coloration; 1.5 corresponds to a degree of coloration intermediate between scores 1 and 2; 2 corresponds to clear coloration of moderate intensity; 2.5 corresponds to a degree of coloration intermediate between scores 2 and 3; 3 corresponds to intense coloration; 3.5 corresponds to a degree of coloration intermediate between scores 3 and 4; 4 corresponds to very intense coloration; settings: 37° C.
Description: as §1, §2, §3

Listeria ivanovii 018 = test: as above; parameters: key: —: the symbol “-” corresponds to the absence of color or intensity; 0 corresponds to no activity; 0.1 corresponds to a trace of color; 0.5 corresponds to very pale coloration; 1 corresponds to clear but low-intensity coloration; 1.5 corresponds to a degree of coloration intermediate between scores 1 and 2; 2 corresponds to clear coloration of moderate intensity; 2.5 corresponds to a degree of coloration intermediate between scores 2 and 3; 3 corresponds to intense coloration; 3.5 corresponds to a degree of coloration intermediate between scores 3 and 4; 4 corresponds to very intense coloration; settings: 37° C.
Description: as §1, §2, §3

[4] = system: Listeria monocytogenes 092; test: as above; parameters: key: —: the symbol “-” corresponds to the absence of color or intensity; 0 corresponds to no activity; 0.1 corresponds to a trace of color; 0.5 corresponds to very pale coloration; 1 corresponds to clear but low-intensity coloration; 1.5 corresponds to a degree of coloration intermediate between scores 1 and 2; 2 corresponds to clear coloration of moderate intensity; 2.5 corresponds to a degree of coloration intermediate between scores 2 and 3; 3 corresponds to intense coloration; 3.5 corresponds to a degree of coloration intermediate between scores 3 and 4; 4 corresponds to very intense coloration; settings: 37° C.
Description: as §1, §2, §3

Listeria innocua 171 = test: as above; parameters: key: —: the symbol “-” corresponds to the absence of color or intensity; 0 corresponds to no activity; 0.1 corresponds to a trace of color; 0.5 corresponds to very pale coloration; 1 corresponds to clear but low-intensity coloration; 1.5 corresponds to a degree of coloration intermediate between scores 1 and 2; 2 corresponds to clear coloration of moderate intensity; 2.5 corresponds to a degree of coloration intermediate between scores 2 and 3; 3 corresponds to intense coloration; 3.5 corresponds to a degree of coloration intermediate between scores 3 and 4; 4 corresponds to very intense coloration; settings: 37° C.
Description: as §1, §2, §3

Listeria innocua 166 = test: as above; parameters: key: —: the symbol “-” corresponds to the absence of color or intensity; 0 corresponds to no activity; 0.1 corresponds to a trace of color; 0.5 corresponds to very pale coloration; 1 corresponds to clear but low-intensity coloration; 1.5 corresponds to a degree of coloration intermediate between scores 1 and 2; 2 corresponds to clear coloration of moderate intensity; 2.5 corresponds to a degree of coloration intermediate between scores 2 and 3; 3 corresponds to intense coloration; 3.5 corresponds to a degree of coloration intermediate between scores 3 and 4; 4 corresponds to very intense coloration; settings: 37° C.
Description: as §1, §2, §3

Listeria species = test: Experiment 3: differentiation of Listeria species in liquid medium
Description: as §1
These substrates were lyophilized in the wells of API-type strips (Registered Trademark). Before use, the substrates contained in the wells were resuspended in an agar-free Columbia-type inoculation medium. […]
as §3

Row | results as saccharidase substrate paired with an esterase substrate [1] | Compound | I (intensity of the color) (Listeria seeligeri 011; IT 4 h) | I (intensity of the color) (Listeria seeligeri 011; IT 6 h) | I (intensity of the color) (Listeria seeligeri 011; IT 8 h) | I (intensity of the color) ([2]; IT 4 h) | I (intensity of the color) ([2]; IT 6 h) | I (intensity of the color) ([2]; IT 8 h) | I (intensity of the color) (Listeria welshimeri 023; IT 4 h) | I (intensity of the color) (Listeria welshimeri 023; IT 6 h) | I (intensity of the color) (Listeria welshimeri 023; IT 8 h) | I (intensity of the color) ([3]; IT 4 h) | I (intensity of the color) ([3]; IT 6 h) | I (intensity of the color) ([3]; IT 8 h) | I (intensity of the color) (Listeria ivanovii 018; IT 4 h) | I (intensity of the color) (Listeria ivanovii 018; IT 6 h) | I (intensity of the color) (Listeria ivanovii 018; IT 8 h) | I (intensity of the color) ([4]; IT 4 h) | I (intensity of the color) ([4]; IT 6 h) | I (intensity of the color) ([4]; IT 8 h) | I (intensity of the color) (Listeria innocua 171; IT 4 h) | further results
1 | – | CCCCCCCCC(=O)Oc1c[nH]c2ccc(Br)c(Cl)c12 [5-Bromo-4-chloro-3-indolyl nonanoate] | – | – | – | – | – | – | – | – | – | – | – | – | – | – | – | – | – | – | – | contrast ([1]; together with a saccharidase substrate based on 6-Chloro-3-indolyl, whatever the target activity): best contrast
2 | best results | CC(=O)N[C@H]1[C@H](Oc2c[nH]c3cc(Cl)ccc23)O[C@H](CO)[C@@H](O)[C@@H]1O [6-Chloro-3-indolyl-N-acetyl-β-D-glucosaminide] | – | – | – | – | – | – | – | – | – | – | – | – | – | – | – | – | – | – | – | –
3 | best results | OC[C@H]1O[C@H](Oc2c[nH]c3cc(Cl)ccc23)[C@@H](O)[C@@H](O)[C@@H]1O [6-Chloro-3-indolyl-α-D-mannoside] | – | – | – | – | – | – | – | – | – | – | – | – | – | – | – | – | – | – | – | –
4 | best results | OC[C@H]1O[C@@H](Oc2c[nH]c3cc(Cl)ccc23)[C@H](O)[C@@H](O)[C@@H]1O [6-Chloro-3-indolyl-β-D-glucoside] | – | – | – | – | – | – | – | – | – | – | – | – | – | – | – | – | – | – | – | –
5 | – | CC(=O)Oc1c[nH]c2ccc(Br)c(Cl)c12 [X-C2, 5-Bromo-4-chloro-3-indolyl acetate] | 3 | 3 | 4 | 2 | 2 | 3 | 3 | 4 | 4 | 3 | 4 | 4 | 3 | 3 | 4 | 3 | 4 | 4 | 4 | I (intensity of the color) (Listeria innocua 171; IT 6 h): 4; I (intensity of the color) (Listeria innocua 171; IT 8 h): 4; I (intensity of the color) (Listeria innocua 166; IT 4 h): 3; I (intensity of the color) (Listeria innocua 166; IT 6 h): 4; I (intensity of the color) (Listeria innocua 166; IT 8 h): 4
6 | – | CCCC(=O)Oc1c[nH]c2ccc(Br)c(Cl)c12 [X-C4, 5-Bromo-4-chloro-3-indolyl butyrate] | 0.5 | 1 | 2 | 0.5 | 1 | 2 | 0.5 | 1 | 2 | 1 | 2 | 3 | 0.5 | 1 | 2 | 2 | 2 | 3 | 0.5 | differentiation between L. monocytogenes and other species belonging to the same genus (Listeria species): gave a contrast in color; I (intensity of the color) (Listeria innocua 171; IT 6 h): 1; I (intensity of the color) (Listeria innocua 171; IT 8 h): 2; I (intensity of the color) (Listeria innocua 166; IT 4 h): 0.5; I (intensity of the color) (Listeria innocua 166; IT 6 h): 1; I (intensity of the color) (Listeria innocua 166; IT 8 h): 2
7 | – | CC(=O)Oc1c[nH]c2ccccc12 [Y-C2, 3-Indolyl acetate] | 3 | 3 | 4 | 3 | 4 | 4 | 3 | 4 | 4 | 3 | 4 | 4 | 3 | 4 | 4 | 4 | 4 | 4 | 3 | I (intensity of the color) (Listeria innocua 171; IT 6 h): 3; I (intensity of the color) (Listeria innocua 171; IT 8 h): 4; I (intensity of the color) (Listeria innocua 166; IT 4 h): 3; I (intensity of the color) (Listeria innocua 166; IT 6 h): 3; I (intensity of the color) (Listeria innocua 166; IT 8 h): 4
